Experimental findings from patent US20240376094A2, “SELECTIVE BCL-XL PROTAC COMPOUNDS AND METHODS OF USE” (Les Laboratoires Servier, priority 2021, published 2024) are described below.

Type in all cases: cell-based
For experiment [1], the system named is EBC-1 lung cancer cell line. Nature of the experiment: EBC-1 cell proliferation, CellTiter-Glo assay. The note with it: Homo sapiens, 120 h; Ebc-1 cell viability, CTG assay, 5 days of treatment; read-out: CTG 5 day Ebc1 GI50. A digest of the protocol:
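CellTiter-Glo read-out after 5-day compound treatment, normalised to untreated cells, with GI50 derived by four-parameter logistic regression. Ten concentrations spanning 0.508 nM–10 μM were added to 1000 EBC-1 cells per well the day after seeding. Assays required at least one cell doubling versus Day 0.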
(ATP-based viability assays read luminescence as a measure of living cells.)

The subject of experiment [2] is MOLT-4 cells. Nature of the experiment: MOLT-4 cell viability, CTG assay. The conditions noted are these: Homo sapiens, MOLT-4, 48 h. A digest of the protocol:
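Viability read as total ATP luminescence (CTG) after 48 h compound treatment, 11 points at 5-fold spacing in triplicate, cells in RPMI 1640/10% FBS. IC50 is the concentration halving signal relative to control, four-parameter fit, averaged over at least 2 experiments.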

The target in experiment [3] is T1, HiBiT-tagged BCL-xL (Homo sapiens, UniProt Q07817).
T1 construct: expressed in transfected cells; host or cells: NCI-H1650 (ATCC No. CRL-5883), engineered HiBiT cell line
Briefly: NCI-H1650 BCL-xL protein levels, Nano-Glo HiBiT Lytic Detection. The conditions noted are these: NCI-H1650 expressing HiBiT-tagged BCL-xL, overnight incubation, read-out: Bcl-xl HIBIT NCIH1650 DC50. A digest of the protocol: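 HiBiT luminescence after cell lysis with LgBiT/furimazine reagent reported BCL-xL levels, expressed relative to untreated wells and fitted with a four-parameter logistic equation. Engineered NCI-H1650 cells were exposed overnight at 37° C to compound at final 0.508 nM-10 μM (10 points, triplicate plates).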

In experiment [4] the target is T2, Bcl-xL (Homo sapiens, UniProt Q07817).
T2 construct: Measured levels of Bcl-xL protein of HCT116 cells treated with the tested compounds; host or cells: HCT116
Briefly: HCT116 Bcl-xL degradation, capillary-based immunoassay (WES). The note with it: HCT116, 24 h, 9-point serial dilution. The gist of the method:
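Bcl-xL protein level by capillary WES immunoassay in HCT116 lysates, as % of untreated after cofilin normalization. Compound exposure was 24 h at 10 and 100 nM and/or a 9-point series, in quadruplicate. Four-parameter fitting gave the DC50.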

T2 sequence (Q07817 whole entry): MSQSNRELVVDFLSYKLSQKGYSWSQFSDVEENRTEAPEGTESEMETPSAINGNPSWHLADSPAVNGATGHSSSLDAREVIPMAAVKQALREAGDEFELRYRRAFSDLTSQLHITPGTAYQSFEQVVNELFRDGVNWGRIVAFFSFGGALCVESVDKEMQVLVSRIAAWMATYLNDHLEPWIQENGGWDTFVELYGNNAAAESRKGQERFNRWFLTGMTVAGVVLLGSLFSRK
T1 sequence (Q07817 whole entry): as above

Regarding `Cc1ncsc1-c1ccc([C@H](C)NC(=O)[C@@H]2C[C@@H](O)CN2C(=O)[C@@H](NC(=O)CCCCCCCCCCCCCN(C)CCOC23CC4(C)CC(C)(CC(Cn5ncc(-c6ccc(N7CCCc8c7nnc(Nc7nc9ccccc9s7)c8C)nc6C(=O)N(C)C)c5C)(C4)C2)C3)C(C)(C)C)cc1` [Example 148, 6-[3-(1,3-benzothiazol-2-ylamino)-4-methyl-6,7-dihydro-5H-pyrido[2,3-c]pyridazin-8-yl]-3-[1-[[3-[2-[[14-[[(1S)-1-[(2S,4R)-4-hydroxy-2-[[(1S)-1-[4-(4-methylthiazol-5-yl)phenyl]ethyl]carbamoyl]pyrrolidine-1-carbonyl]-2,2-dimethyl-propyl]amino]-14-oxo-tetradecyl]-methyl-amino]ethoxy]-5,7-dimethyl-1-adamantyl]methyl]-5-methyl-pyrazol-4-yl]-N,N-dimethyl-pyridine-2-carboxamide], in experiment [1], the GI50 amounted to 7 nM. In experiment [2], this molecule came in with an IC50 of 4.51 nM. Moreover, the DC50 in experiment [3] is 1 nM; in experiment [4] it was 1.37 nM.
The matching figures for `Cc1ncsc1-c1ccc(CNC(=O)[C@@H]2C[C@@H](O)CN2C(=O)[C@@H](NC(=O)C2(F)CC2)C(C)(C)SCCCCCCCCCCCCCCN(C)CCOC23CC4(C)CC(C)(CC(Cn5ncc(-c6ccc(N7CCCc8c7nnc(Nc7nc9ccccc9s7)c8C)nc6C(=O)O)c5C)(C4)C2)C3)cc1` [Example 80, 6-[3-(1,3-benzothiazol-2-ylamino)-4-methyl-6,7-dihydro-5H-pyrido[2,3-c]pyridazin-8-yl]-3-[1-[[3-[2-[14-[(2R)-2-[(1-fluorocyclopropanecarbonyl)amino]-3-[(2S,4R)-4-hydroxy-2-[[4-(4-methylthiazol-5-yl)phenyl]methylcarbamoyl]pyrrolidin-1-yl]-1,1-dimethyl-3-oxo-propyl]sulfanyltetradecyl-methyl-amino]ethoxy]-5,7-dimethyl-1-adamantyl]methyl]-5-methyl-pyrazol-4-yl]pyridine-2-carboxylic acid]: 92 nM, 6.11 nM, more than 1670 nM and 3.57 nM.
Consider `Cc1ncsc1-c1ccc([C@H](C)NC(=O)[C@@H]2C[C@@H](O)CN2C(=O)[C@@H](NC(=O)CCCCCCCCCNC(=O)c2nc(N3CCCc4c3nnc(Nc3nc5ccccc5s3)c4C)ccc2-c2cnn(CC34CC5(C)CC(C)(C3)CC(OCCN3CCCC3)(C5)C4)c2C)C(C)(C)C)cc1` [Example 130, 6-[3-(1,3-benzothiazol-2-ylamino)-4-methyl-6,7-dihydro-5H-pyrido[2,3-c]pyridazin-8-yl]-3-[1-[[3,5-dimethyl-7-(2-pyrrolidin-1-ylethoxy)-1-adamantyl]methyl]-5-methyl-pyrazol-4-yl]-N-[10-[[(1S)-1-[(2S,4R)-4-hydroxy-2-[[(1S)-1-[4-(4-methylthiazol-5-yl)phenyl]ethyl]carbamoyl]pyrrolidine-1-carbonyl]-2,2-dimethyl-propyl]amino]-10-oxo-decyl]pyridine-2-carboxamide], for which, in experiment [1], the GI50 amounted to 2 nM. Moreover, in experiment [2], the IC50 stood at 4.04 nM. Also, the DC50 is 1 nM in experiment [3] and 0.857 nM in experiment [4].
Regarding `Cc1ncsc1-c1ccc([C@H](C)NC(=O)[C@@H]2C[C@@H](O)CN2C(=O)[C@@H](NC(=O)CCCCCCCCCCCNC(=O)c2nc(N3CCCc4c3nnc(Nc3nc5ccccc5s3)c4C)ccc2-c2cnn(CC34CC5(C)CC(C)(C3)CC(OCCN3CCCC3)(C5)C4)c2C)C(C)(C)C)cc1` [Example 131, 6-[3-(1,3-benzothiazol-2-ylamino)-4-methyl-6,7-dihydro-5H-pyrido[2,3-c]pyridazin-8-yl]-3-[1-[[3,5-dimethyl-7-(2-pyrrolidin-1-ylethoxy)-1-adamantyl]methyl]-5-methyl-pyrazol-4-yl]-N-[12-[[(1S)-1-[(2S,4R)-4-hydroxy-2-[[(1S)-1-[4-(4-methylthiazol-5-yl)phenyl]ethyl]carbamoyl]pyrrolidine-1-carbonyl]-2,2-dimethyl-propyl]amino]-12-oxo-dodecyl]pyridine-2-carboxamide], the GI50 in experiment [1] was found to be 8 nM. The molecule also showed an IC50 in experiment [2] of 13.9 nM. Besides, the DC50 in experiment [3] came out at 1 nM; in experiment [4], 1.34 nM.
The corresponding values for `Cc1ncsc1-c1ccc([C@H](C)NC(=O)[C@@H]2C[C@@H](O)CN2C(=O)[C@@H](NC(=O)CCCCCCCCCCCCCCCCN(C)CCOC23CC4(C)CC(C)(CC(Cn5ncc(-c6ccc(N7CCCc8c7nnc(Nc7nc9ccccc9s7)c8C)nc6C(=O)O)c5C)(C4)C2)C3)C(C)(C)C)cc1` [Example 145, 6-[3-(1,3-benzothiazol-2-ylamino)-4-methyl-6,7-dihydro-5H-pyrido[2,3-c]pyridazin-8-yl]-3-[1-[[3-[2-[[17-[[(1S)-1-[(2S,4R)-4-hydroxy-2-[[(1S)-1-[4-(4-methylthiazol-5-yl)phenyl]ethyl]carbamoyl]pyrrolidine-1-carbonyl]-2,2-dimethyl-propyl]amino]-17-oxo-heptadecyl]-methyl-amino]ethoxy]-5,7-dimethyl-1-adamantyl]methyl]-5-methyl-pyrazol-4-yl]pyridine-2-carboxylic acid] are 1 nM, 2.41 nM, 2 nM and 2.17 nM.
The matching figures for `Cc1ncsc1-c1ccc(CNC(=O)[C@@H]2C[C@@H](O)CN2C(=O)[C@@H](NC(=O)C2(F)CC2)C(C)(C)C)c(OCCCCCCCCCCCCCCCCN(C)CCOC23CC4(C)CC(C)(CC(Cn5ncc(-c6ccc(N7CCCc8c7nnc(Nc7nc9ccccc9s7)c8C)nc6C(=O)O)c5C)(C4)C2)C3)c1` [Example 77, 6-[3-(1,3-benzothiazol-2-ylamino)-4-methyl-6,7-dihydro-5H-pyrido[2,3-c]pyridazin-8-yl]-3-[1-[[3-[2-[16-[2-[[[(2S,4R)-1-[(2S)-2-[(1-fluorocyclopropanecarbonyl)amino]-3,3-dimethyl-butanoyl]-4-hydroxy-pyrrolidine-2-carbonyl]amino]methyl]-5-(4-methylthiazol-5-yl)phenoxy]hexadecyl-methyl-amino]ethoxy]-5,7-dimethyl-1-adamantyl]methyl]-5-methyl-pyrazol-4-yl]pyridine-2-carboxylic acid]: 167 nM, 4.54 nM, more than 1670 nM and more than 316 nM.
Turning to `Cc1cc(N(CCCCN(C)C(=O)CCCCCCCCCC(=O)N[C@H](C(=O)N2C[C@H](O)C[C@H]2C(=O)N[C@@H](C)c2ccc(-c3scnc3C)cc2)C(C)(C)C)c2ccc(-c3cnn(CC45CC6(C)CC(C)(C4)CC(OCCN(C)C)(C6)C5)c3C)c(C(=O)O)n2)nnc1Nc1nc2ccccc2s1` [Example 114, 6-[[6-(1,3-benzothiazol-2-ylamino)-5-methyl-pyridazin-3-yl]-[4-[[11-[[(1S)-1-[(2S,4R)-4-hydroxy-2-[[(1S)-1-[4-(4-methylthiazol-5-yl)phenyl]ethyl]carbamoyl]pyrrolidine-1-carbonyl]-2,2-dimethyl-propyl]amino]-11-oxo-undecanoyl]-methyl-amino]butyl]amino]-3-[1-[[3-[2-(dimethylamino)ethoxy]-5,7-dimethyl-1-adamantyl]methyl]-5-methyl-pyrazol-4-yl]pyridine-2-carboxylic acid], the GI50 in experiment [1] was determined as 1720 nM. In addition, the IC50 in experiment [2] worked out at 24.8 nM. Also, the DC50 in experiment [3] stood at 1 nM; in experiment [4], 2.67 nM.
The corresponding values for `Cc1ncsc1-c1ccc([C@H](C)NC(=O)[C@@H]2C[C@@H](O)CN2C(=O)[C@@H](NC(=O)COCCCCCCCCCCCN(C)CCOC23CC4(C)CC(C)(CC(Cn5ncc(-c6ccc(N7CCCc8c7nnc(Nc7nc9ccccc9s7)c8C)nc6C(=O)O)c5C)(C4)C2)C3)C(C)(C)C)cc1` [Example 110, 6-[3-(1,3-benzothiazol-2-ylamino)-4-methyl-6,7-dihydro-5H-pyrido[2,3-c]pyridazin-8-yl]-3-[1-[[3-[2-[11-[2-[[(1S)-1-[(2S,4R)-4-hydroxy-2-[[(1S)-1-[4-(4-methylthiazol-5-yl)phenyl]ethyl]carbamoyl]pyrrolidine-1-carbonyl]-2,2-dimethyl-propyl]amino]-2-oxo-ethoxy]undecyl-methyl-amino]ethoxy]-5,7-dimethyl-1-adamantyl]methyl]-5-methyl-pyrazol-4-yl]pyridine-2-carboxylic acid] are 379 nM, 23.9 nM, 2 nM and 11.4 nM.

The term GI50 denotes the concentration at which growth is held to half of that of the control. As usually defined, the IC50 is the concentration needed to halve the response being measured.
